This is an account of results in patent US20250296971A1, “GASTRIC INHIBITORY PEPTIDE RECEPTOR LIGANDS” (priority 2021, published 2025).

Structures are written as SMILES. *1 amine or outer side, *2 acyl side, *3 side chain or, on linkers, in order; H or OH if unused. Where a SMILES comes first, the peptide text is derived from it. Bridges are numbered along the chain shown (N, C = ends). [ ]: non-standard residue; d: D form. The star is where a group is joined. X5 = NC(=O)[C@H](CCCCNC(=O)CN1CCN(CC(=O)O)CCN(CC(=O)O)CCN(CC(=O)O)CC1)NC(=O)CCC(=O)NCCCOCCOCCOCCCN*; X3 = O=C(O)CN1CCN(CC(=O)O)CCN(CC(=O)NCCCOCCOCCOCCCN*)CCN(CC(=O)O)CC1; Trp(5-Cl) = N[C@@H](Cc1c[nH]c2ccc(Cl)cc12)C(=O)O; Phe(3,5-Cl2) = N[C@@H](Cc1cc(Cl)cc(Cl)c1)C(=O)O; Pyridine(2,6-diCH2) = c1cc(C[*:1])nc(C[*:2])c1; Trp(7-aza) = N[C@@H](Cc1c[nH]c2ncccc12)C(=O)O; X22 = O=C([C@H](Cc1cccc(Cl)c1Cl)N[*:1])[*:2]; Phe(2-Cl) = N[C@@H](Cc1ccccc1Cl)C(=O)O; 2Nal = N[C@@H](Cc1ccc2ccccc2c1)C(=O)O; mXylylene = c1cc(C[*:1])cc(C[*:2])c1; Bta = N[C@@H](Cc1csc2ccccc12)C(=O)O; Hyp = O=C(O)[C@@H]1C[C@@H](O)CN1; Suc = O=C(CCC(=O)[*:2])[*:1]; hLeu = CC(C)CC[C@H](N)C(=O)O; Thp = NC1(C(=O)O)CCOCC1; Aib = CC(C)(N)C(=O)O

This assay concerns the target T1, GIPR (CHO-K1-hGIPR cells) (Homo sapiens, UniProt P48546).
T1 construct: host or cells: CHO-K1
T1 sequence (P48546 22-466): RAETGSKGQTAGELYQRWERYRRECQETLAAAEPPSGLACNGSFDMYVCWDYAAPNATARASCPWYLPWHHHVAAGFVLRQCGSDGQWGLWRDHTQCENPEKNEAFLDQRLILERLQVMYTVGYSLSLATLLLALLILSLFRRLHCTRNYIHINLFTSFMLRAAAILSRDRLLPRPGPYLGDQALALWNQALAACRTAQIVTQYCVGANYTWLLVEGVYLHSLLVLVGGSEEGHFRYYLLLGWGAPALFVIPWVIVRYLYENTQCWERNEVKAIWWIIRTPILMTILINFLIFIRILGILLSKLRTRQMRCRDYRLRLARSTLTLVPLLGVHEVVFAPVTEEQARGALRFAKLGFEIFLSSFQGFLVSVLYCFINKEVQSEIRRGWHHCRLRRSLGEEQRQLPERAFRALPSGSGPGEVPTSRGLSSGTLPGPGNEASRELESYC
In words: FACS binding assay. Particulars: competition with 20 nM GIP-057, 4° C. for 1 hour, read-out: pIC50 Category (converted). A digest of the protocol:
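Steps: detach CHO-K1-hGIPR cells (Accutase); wash in PBS/1% FCS; adjust to 500.000 cells per mL; wash ice-cold; incubate APC-streptavidin 1 μg/mL, 30 min on ice; wash twice; acquire on flow cytometer; fit MFI-concentration data with a four-parameter logistic model.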

On to `CC[C@H](C)[C@@H]1NC(=O)[C@H](CCC(C)C)NC(=O)C(C)(C)NC(=O)[C@@H](NC(=O)[C@H](CC(C)C)NC(=O)[C@H](CCC(=O)O)NC(=O)[C@@H]2CCCN2C(=O)[C@H](Cc2c[nH]c3ccccc23)NC(=O)[C@H](Cc2c[nH]c3ccccc23)NC(=O)CCC(=O)O)CSCc2cccc(c2)CSC[C@@H](C(N)=O)NC1=O` [GIP-260, HO-Succinyl-Trp-Trp-Pro-Glu-Leu-[Cys(3MeBn)-Aib-Hle-Ile-Cys]-NH2] (Suc-WWPELC[Aib][hLeu]IC-NH2; linker 6-10 via mXylylene), for which the IC50 is 10 to 79.4 nM.
Next, `CC[C@H](C)[C@@H]1NC(=O)[C@H](CC(C)C)NC(=O)C2(CCOCC2)NC(=O)[C@@H](NC(=O)[C@H](CC(C)C)NC(=O)[C@H](CCC(=O)O)NC(=O)[C@@H]2CCCN2C(=O)[C@H](Cc2c[nH]c3ccccc23)NC(=O)[C@H](Cc2c[nH]c3ccccc23)NC(=O)CCC(=O)O)CSCc2cccc(c2)CSC[C@@H](C(N)=O)NC1=O` [GIP-261, HO-Succinyl-Trp-Trp-Pro-Glu-Leu-[Cys(3MeBn)-Thp-Leu-Ile-Cys]-NH2] (Suc-WWPELC[Thp]LIC-NH2; linker 6-10 via mXylylene): 10 to 79.4 nM.
With `CC[C@H](C)[C@@H]1NC(=O)[C@H](CC(C)C)NC(=O)C2(CCOCC2)NC(=O)[C@@H](NC(=O)[C@@H](CC(C)C)NC(=O)[C@H](CCC(=O)O)NC(=O)[C@@H]2C[C@@H](O)CN2C(=O)[C@H](Cc2c[nH]c3ccc(Cl)cc23)NC(=O)[C@H](Cc2ccccc2Cl)NC(=O)[C@H](CC(=O)O)NC(C)=O)CSCc2cccc(n2)CSC[C@@H](C(N)=O)NC1=O` [GIP-262, Ac-Asp-Ocf-5Clw-Hyp-Glu-leu-[Cys(2Lut)-Thp-Leu-Ile-Cys]-NH2] (Ac-D[Phe(2-Cl)][Trp(5-Cl)][Hyp]E[dL]C[Thp]LIC-NH2; linker 7-11 via Pyridine(2,6-diCH2)), the IC50 was 10 to 79.4 nM.
Next, `CC[C@H](C)[C@@H]1NC(=O)[C@H](CC(C)C)NC(=O)C2(CCOCC2)NC(=O)[C@@H](NC(=O)[C@@H](CC(C)C)NC(=O)[C@H](CCC(=O)O)NC(=O)[C@@H]2C[C@@H](O)CN2C(=O)[C@H](Cc2c[nH]c3ccc(Cl)cc23)NC(=O)[C@H](Cc2cc(Cl)cc(Cl)c2)NC(=O)[C@H](CC(=O)O)NC(C)=O)CSCc2cccc(n2)CSC[C@@H](C(N)=O)NC1=O` [GIP-263, Ac-Asp-Egn-5Clw-Hyp-Glu-leu-[Cys(2Lut)-Thp-Leu-Ile-Cys]-NH2] (Ac-D[Phe(3,5-Cl2)][Trp(5-Cl)][Hyp]E[dL]C[Thp]LIC-NH2; linker 7-11 via Pyridine(2,6-diCH2)): 10 to 79.4 nM; `CC[C@H](C)[C@@H]1NC(=O)[C@H](CC(C)C)NC(=O)C2(CCOCC2)NC(=O)[C@@H](NC(=O)[C@@H](CC(C)C)NC(=O)[C@H](CCC(=O)O)NC(=O)[C@@H]2C[C@@H](O)CN2C(=O)[C@H](Cc2cc(Cl)cc(Cl)c2)NC(=O)[C@H](Cc2c[nH]c3ccccc23)NC(=O)[C@H](CC(=O)O)NC(C)=O)CSCc2cccc(n2)CSC[C@@H](C(N)=O)NC1=O` [GIP-264, Ac-Asp-Trp-Egn-Hyp-Glu-leu-[Cys(2Lut)-Thp-Leu-Ile-Cys]-NH2] (Ac-DW[Phe(3,5-Cl2)][Hyp]E[dL]C[Thp]LIC-NH2; linker 7-11 via Pyridine(2,6-diCH2)): 10 to 79.4 nM.
Next, `CC[C@H](C)[C@@H]1NC(=O)[C@H](CC(C)C)NC(=O)C2(CCOCC2)NC(=O)[C@@H](NC(=O)[C@@H](CC(C)C)NC(=O)[C@H](CCC(=O)O)NC(=O)[C@@H]2C[C@@H](O)CN2C(=O)[C@H](Cc2cccc(Cl)c2Cl)NC(=O)[C@H](Cc2c[nH]c3ccccc23)NC(=O)[C@H](CC(=O)O)NC(C)=O)CSCc2cccc(n2)CSC[C@@H](C(N)=O)NC1=O` [GIP-265, Ac-Asp-Trp-Egp-Hyp-Glu-leu-[Cys(2Lut)-Thp-Leu-Ile-Cys]-NH2] (Ac-DW[X22][Hyp]E[dL]C[Thp]LIC-NH2; linker 7-11 via Pyridine(2,6-diCH2)): 10 to 79.4 nM.
The same measure for `CC(=O)N[C@@H](CC(=O)O)C(=O)N[C@@H](Cc1c[nH]c2ccccc12)C(=O)N[C@@H](Cc1c[nH]c2ccc(Cl)cc12)C(=O)N1C[C@H](O)C[C@H]1C(=O)N[C@@H](CCC(=O)O)C(=O)N[C@H](CC(C)C)C(=O)N[C@H]1CSCc2cccc(n2)CSC[C@@H](C(N)=O)NC(=O)[C@H](Cc2ccccc2)NC(=O)[C@H](CC(C)C)NC(=O)C2(CCOCC2)NC1=O` [GIP-266, Ac-Asp-Trp-5Clw-Hyp-Glu-leu-[Cys(2Lut)-Thp-Leu-Phe-Cys]-NH2] (Ac-DW[Trp(5-Cl)][Hyp]E[dL]C[Thp]LFC-NH2; linker 7-11 via Pyridine(2,6-diCH2)): 10 to 79.4 nM; for `CC[C@H](C)[C@@H]1NC(=O)[C@H](CC(C)C)NC(=O)C2(CCOCC2)NC(=O)[C@@H](NC(=O)[C@@H](CC(C)C)NC(=O)[C@H](CCC(=O)O)NC(=O)[C@@H]2C[C@@H](O)CN2C(=O)[C@H](Cc2c[nH]c3ncccc23)NC(=O)[C@H](Cc2c[nH]c3ccccc23)NC(=O)[C@H](CC(=O)O)NC(C)=O)CSCc2cccc(n2)CSC[C@@H](C(N)=O)NC1=O` [GIP-267, Ac-Asp-Trp-7Nw-Hyp-Glu-leu-[Cys(2Lut)-Thp-Leu-Ile-Cys]-NH2] (Ac-DW[Trp(7-aza)][Hyp]E[dL]C[Thp]LIC-NH2; linker 7-11 via Pyridine(2,6-diCH2)): 10 to 79.4 nM.
With `CC[C@H](C)[C@@H]1NC(=O)[C@H](CC(C)C)NC(=O)[C@@H](C)NC(=O)[C@@H](NC(=O)[C@@H](CC(C)C)NC(=O)[C@H](CCC(=O)O)NC(=O)[C@@H]2CCCN2C(=O)[C@H](Cc2c[nH]c3ccccc23)NC(=O)[C@H](Cc2c[nH]c3ccccc23)NC(=O)[C@H](CC(=O)O)NC(=O)CCC(=O)NCCCOCCOCCOCCCNC(=O)CN2CCN(CC(=O)O)CCN(CC(=O)O)CCN(CC(=O)O)CC2)CSCc2cccc(c2)CSC[C@@H](C(N)=O)NC1=O` [GIP-268, DOTA-Ttds-Asp-Trp-Trp-Pro-Glu-leu-[Cys(3MeBn)-ala-Leu-Ile-Cys]-NH2] ({X3-Suc}-DWWPE[dL]C[dA]LIC-NH2; linker 7-11 via mXylylene), the IC50 is 100 to 794 nM.
Next, `CC[C@H](C)[C@@H]1NC(=O)[C@H](CC(C)C)NC(=O)[C@@H](C)NC(=O)[C@@H](NC(=O)[C@H](CC(C)C)NC(=O)[C@@H](CCC(=O)O)NC(=O)[C@@H]2CCCN2C(=O)[C@H](Cc2c[nH]c3ccccc23)NC(=O)[C@H](Cc2c[nH]c3ccccc23)NC(=O)[C@H](CC(=O)O)NC(=O)CCC(=O)NCCCOCCOCCOCCCNC(=O)CN2CCN(CC(=O)O)CCN(CC(=O)O)CCN(CC(=O)O)CC2)CSCc2cccc(c2)CSC[C@@H](C(N)=O)NC1=O` [GIP-269, DOTA-Ttds-Asp-Trp-Trp-Pro-glu-Leu-[Cys(3MeBn)-ala-Leu-Ile-Cys]-NH2] ({X3-Suc}-DWWP[dE]LC[dA]LIC-NH2; linker 7-11 via mXylylene): 100 to 794 nM; `CC[C@H](C)[C@@H]1NC(=O)[C@H](CC(C)C)NC(=O)[C@@H](C)NC(=O)[C@@H](NC(=O)[C@H](CC(C)C)NC(=O)[C@H](CCC(=O)O)NC(=O)[C@@H]2CCCN2C(=O)[C@H](Cc2c[nH]c3ccccc23)NC(=O)[C@H](Cc2c[nH]c3ccccc23)NC(=O)[C@H](CC(=O)O)NC(=O)CCC(=O)NCCCOCCOCCOCCCNC(=O)CN2CCN(CC(=O)O)CCN(CC(=O)O)CCN(CC(=O)O)CC2)CSCc2cccc(c2)CSC[C@@H](C(N)=O)NC1=O` [GIP-271, DOTA-Ttds-asp-Trp-Trp-Pro-Glu-Leu-[Cys(3MeBn)-ala-Leu-Ile-Cys]-NH2] ({X3-Suc}-DWWPELC[dA]LIC-NH2; linker 7-11 via mXylylene): 100 to 794 nM; `CC[C@H](C)[C@@H]1NC(=O)[C@H](CC(C)C)NC(=O)C(C)(C)NC(=O)[C@@H](NC(=O)[C@H](CC(C)C)NC(=O)[C@H](CCC(=O)O)NC(=O)[C@@H]2CCCN2C(=O)[C@H](Cc2c[nH]c3ccccc23)NC(=O)[C@H](Cc2ccc3ccccc3c2)NC(=O)[C@H](CC(=O)O)NC(C)=O)CSCc2cccc(c2)CSC[C@@H](C(=O)NCCCOCCOCCOCCCNC(=O)CCC(=O)N[C@@H](CCCCNC(=O)CN2CCN(CC(=O)O)CCN(CC(=O)O)CCN(CC(=O)O)CC2)C(N)=O)NC1=O` [GIP-272, Ac-Asp-2Ni-Trp-Pro-Glu-Leu-[Cys(3MeBn)-Aib-Leu-Ile-Cys]-Ttds-Lys(DOTA)-NH2] (Ac-D[2Nal]WPELC[Aib]LIC-X5; linker 7-11 via mXylylene): 100 to 794 nM.
Regarding `CC[C@H](C)[C@@H]1NC(=O)[C@H](CC(C)C)NC(=O)C(C)(C)NC(=O)[C@@H](NC(=O)[C@H](CC(C)C)NC(=O)[C@H](CCC(=O)O)NC(=O)[C@@H]2CCCN2C(=O)[C@H](Cc2c[nH]c3ccccc23)NC(=O)[C@H](Cc2csc3ccccc23)NC(=O)[C@H](CC(=O)O)NC(C)=O)CSCc2cccc(c2)CSC[C@@H](C(=O)NCCCOCCOCCOCCCNC(=O)CCC(=O)N[C@@H](CCCCNC(=O)CN2CCN(CC(=O)O)CCN(CC(=O)O)CCN(CC(=O)O)CC2)C(N)=O)NC1=O` [GIP-273, Ac-Asp-Bta-Trp-Pro-Glu-Leu-[Cys(3MeBn)-Aib-Leu-Ile-Cys]-Ttds-Lys(DOTA)-NH2] (Ac-D[Bta]WPELC[Aib]LIC-X5; linker 7-11 via mXylylene), the IC50 is 100 to 794 nM.
